According to US9102967B2, “PmST2 enzyme for chemoenzymatic synthesis of α-2-3-sialylglycolipids” (priority 2012, dated 2015):

What was measured:
MBP-PmST2-His6 [1] = target: T1, MBP-PmST2-His6 (Pasteurella multocida, UniProt Q9CNC4, M25T); format: biochemical; settings: MnCl2/MgCl2 1, 5, 10 or 20 mM; EDTA or 2-ME 1 or 10 mM; acceptor LacβPro-triazole-C14
T1 construct: used to clone of the full-length MBP-PmST2-His6 fusion protein in pMa1-c4X vector; made in house; host or cells: E. coli BL21(DE3)
Procedure: Reactions were carried out in duplicate at 37° C. for 15 min in a total volume of 15 μl in a Tris-HCl buffer (200 mM, pH 8.0) containing LacβPro-triazole-C14 (2 mM), CMP-Neu5Ac (8 mM), 0.3% Triton X-100, and the enzyme (2.4 μg μl^−1). For metal effects, various concentrations (1, 5, 10, or 20 mM) of MgCl2 or MnCl2 were added and ethylenediaminetetraacetic acid (EDTA as chelating agent was used at two concentrations (1 or 10 mM). A reducing reagent 2-mercaptoethanol (2-ME) was used at two concentrations (1 or 10 mM). Reaction without metal ions, EDTA, or 2-ME was used as a control. All reactions were stopped by adding 15 μl of pre-chilled 95% ethanol and the reaction mixtures were kept on ice. The samples were centrifuged at 13,000 rpm for 5 min before the supernatants were analyzed by CE as described above.

MBP-PmST2-His6 [2] = target: T1, MBP-PmST2-His6; experiment: Acceptor substrate specificity studies (CE analysis); format: biochemical; settings: for % product formation: acceptor 2 mM, CMP-Neu5Ac 4 mM, 10 min, 37° C., pH 8.0, 0.4% Triton X-100; for % Relative: relative to LacβPro-triazole-C14 = 100
Procedure: Enzymatic Reactions. All reactions were carried out in duplicate for 10 min at 37° C. in a total volume of 10 μl in Tris-HCl (200 mM, pH 8.0) containing an acceptor substrate (2 mM), CMP-Neu5Ac (4 mM), 0.4% Triton X-100, and enzyme (3.6 μg μl^−1). Addition of 15 μl of cold 95% ethanol was used to terminate each reaction. All reactions were incubated on ice for 10 min and were then centrifuged for 5 min at 13,000 rpm. The supernatant was transferred to a new vial for CE analysis.

PmST1 [3] = target: T2, PmST1 (Pasteurella multocida, UniProt Q15KI8); settings: cited from earlier work
[4] = test system: N. meningitidis (MC58 and 406Y) Lst; settings: previous report; cited from earlier work
MBP-PmST2-His6 [5] = target: T1, MBP-PmST2-His6; experiment: pH profile of α2-3-sialyltransferase reaction; format: biochemical; settings: acceptor 2 mM, 0.3% Triton X-100
Procedure: Each reaction was carried out in duplicate at 37° C. for 15 min in a buffer (200 mM) with a total volume of 15 μl containing an acceptor (2 mM, LacβPro2AA or LacβPro-triazole-C14), CMP-Neu5Ac (8 mM), 0.3% Triton X-100, and the enzyme MBP-PmST2-His6 (2.4 μg μl^−1). Buffers used were: NaOAc-HOAc (pH 4.0-6.0), Tris-HCl (pH 7.0-9.0), and CHES (pH 10.0). Enzymatic reactions were terminated by adding 15 μl of pre-chilled 95% ethanol. All samples were kept on ice for 10 min and then centrifuged at 13,000 rpm for 5 min. Supernatants were analyzed by HPLC (for LacβPro2AA reaction) or CE (for LacβPro-triazole-C14 reaction) as described above for the time course studies.

MBP-PmST2-His6 [6] = target: T1, MBP-PmST2-His6; experiment: Time-course study of α-2,3-sialyltransferase activity; format: biochemical; settings: acceptor 2 mM, CMP-Neu5Ac 8 mM, 37° C., pH 8.0
Procedure: (§1) Enzymatic reactions were performed in a total volume of 20 μl (when LacβPro2AA was used as an acceptor) or 40 μl (when LacβPro-triazole-C 14 was used as an acceptor) in a Tris-HCl buffer (200 mM, pH 8.0) containing an acceptor (2 mM of LacβPro2AA or LacβPro-triazole-C14), CMP-Neu5Ac (8 mM), 0.3% Triton X-100, and a sialyltransferase ([…] MBP-PmST2-His6 or PmST1) at 37° C. At different time points (0, 1, 5, 10, 15, 20, 30, and 60 min), 1.5 μl aliquots were taken from the LacβPro2AA reaction and pre-chilled 12% acetonitrile aqueous solution (148.5 μl) was added to each aliquot. Similarly, 3.5 μl aliquots were taken from the LacβPro-triazole-C14 reaction at different time points and pre-chilled 95% ethanol (7 μl) was added to each aliquot. All samples were kept on ice for 10 min and then centrifuged for 5 min at 13,000 rpm. Supernatants from LacβPro2AA reactions were analyzed by a Shimadzu LC-2010A HPLC system equipped with a membrane on-line degasser, a temperature control unit, and a fluorescence detector (the excitation wavelength was set at 315 nm and the emission wavelength was set at 400 nm) using a reverse phase Premier C18 column (250×4.6 mm I.D., 5 μm particle size, Shimadzu) protected with a C18 guard column cartridge. Mobile phase used was 12% acetonitrile in water. Supernatants from LacβPro-triazole-C14 reactions were analyzed by a Beckman P/ACE MDQ capillary electrophoresis (CE) system (60 cm×75 μm i.d.) equipped with a PDA detector (optimal absorption at 214 nm). The running buffer used was sodium borate buffer (50 mM, pH 10.2) containing β-cyclcodextrin (20 mM).

PmST1 [7] = target: T2, PmST1; experiment: as above; format: biochemical
Procedure: as §1

MBP-PmST2-His6 [8] = target: T1, MBP-PmST2-His6; format: biochemical; settings: for Km / kcat / Vmax: apparent, 37° C.; for Km: Tris-HCl pH 8.0, 0.3% Triton X-100, varied substrate, other fixed (LacβPro-triazole-C14 2.0 mM or CMP-Neu5Ac 4.0 mM); for kcat: pH 8.0; for Vmax: pH 8.0, enzyme 14 μM
Procedure: Reactions were carried out at 37° C. for […] in a total volume of 15 μl in Tris-HCl buffer (200 mM, pH 8.0) containing 2-mercaptoethanol (1 mM), 0.3% Triton X-100, enzyme (14 μM), with varied CMP-Neu5Ac concentrations (0.25, 0.5, 1.0, 2.0, 5.0, and 10.0 mM) and a fixed LacβPro-triazole-C14 (2.0 mM) concentration, or varied LacβPro-triazole-C14 concentrations (0.5, 1.0, 2.0, 5.0, 10.0, and 20.0 mM) or varied LacβPro2AA concentrations (0.5, 1.0, 2.0, 5.0, 10.0, and 25.0 mM) and a fixed CMP-Neu5Ac concentration (4.0 mM). HPLC assays were used for reactions with LacβPro2AA as the sialyltransferase acceptor and CE assays were used for reactions with LacβPro-triazole-C14 as the sialyltransferase acceptor. Apparent kinetic parameters were obtained by fitting the data (the average values of duplicate assay results) into the Michaelis-Menten equation using Grafit 5.0.

T2 sequence (Q15KI8 entry or part of it): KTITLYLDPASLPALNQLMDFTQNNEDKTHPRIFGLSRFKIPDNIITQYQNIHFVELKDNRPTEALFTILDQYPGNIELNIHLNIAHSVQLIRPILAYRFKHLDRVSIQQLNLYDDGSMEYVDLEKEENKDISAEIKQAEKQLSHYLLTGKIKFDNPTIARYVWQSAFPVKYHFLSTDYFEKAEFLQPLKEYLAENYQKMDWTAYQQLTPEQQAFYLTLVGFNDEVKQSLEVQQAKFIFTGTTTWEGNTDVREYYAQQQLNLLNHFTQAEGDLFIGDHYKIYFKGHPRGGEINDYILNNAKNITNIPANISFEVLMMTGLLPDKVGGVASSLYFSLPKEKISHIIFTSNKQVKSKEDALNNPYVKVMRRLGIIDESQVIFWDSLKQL

Question: For `OCCS` [2-mercaptoethanol, reference compound], which “effect on α2,3-sialyltransferase activity (in words)” value (MBP-PmST2-His6 [1]) is on record?
Answer: did not affect

Question: With `O=C(O)CN(CCN(CC(=O)O)CC(=O)O)CC(=O)O` [EDTA, ethylenediaminetetraacetic acid, reference compound] as the compound, how does the “effect on α2,3-sialyltransferase activity (in words)” value (MBP-PmST2-His6 [1]) read?
Answer: did not affect the activity significantly

Question: What does the source list for `CCCCCCCCCCCCCCc1cn(CCCO[C@H]2O[C@H](CO)[C@H](O)[C@H](O[C@@H]3O[C@H](CO)[C@H](O)[C@H](O)[C@H]3O)[C@H]2NC(C)=O)nn1` [Galβ1-3GalNAcαPro-triazole-C14]?
Answer: % product formation (MBP-PmST2-His6 [2]): <2%; % Relative (MBP-PmST2-His6 [2]): <6%

Question: With `CCCCCCCCCCCCCCc1cn(CCCOC2OC(CO)C(O)C(OC3OC(CO)C(O)C(O)C3O)C2NC(C)=O)nn1` (stereo not shown) [Galβ1-3GlcNAcβPro-triazole-C14] as the compound, how does the “% product formation” value (MBP-PmST2-His6 [2]) read?
Answer: <4%

Question: What about the “% Relative” value (MBP-PmST2-His6 [2]) of the same compound?
Answer: <11%

Question: Which results are given for `CCCCCCCCCCCCCCc1cn(CCCOC2OC(CO)C(O)C(O)C2O)nn1` (stereo not shown) [GalβPro-triazole-C14]?
Answer: % product formation (MBP-PmST2-His6 [2]): 9.2 ± 1.3%; % Relative (MBP-PmST2-His6 [2]): 25.5%

Question: Which “effect on sialyltransferase activity of PmST1 (in words)” value (PmST1 [3]) does the source give for `[Cl-].[Cl-].[Mg+2]` [MgC12, MgCl2] here?
Answer: does not stimulate or change the sialyltransferase activity

Question: What about the stimulation of activity [4] of the same compound?
Answer: 2 fold

Question: And the “effect on α2,3-sialyltransferase activity (in words)” value (MBP-PmST2-His6 [1])?
Answer: did not affect the activity significantly

Question: What does the source list for `[Cl][Mn][Cl]` [MnC12, MnCl2]?
Answer: effect on sialyltransferase activity of PmST1 (in words) (PmST1 [3]): activity decreases; stimulation of activity [4]: 3 fold; effect on α2,3-sialyltransferase activity (in words) (MBP-PmST2-His6 [1]): did not affect the activity significantly

Question: With Galβ1-3GlcNAcαPro-triazole-C14 as the compound, how does the “% product formation” value (MBP-PmST2-His6 [2]) read?
Answer: <2%

Question: What about the “% Relative” value (MBP-PmST2-His6 [2]) of the same compound?
Answer: <6%

Question: With “Galβ1-4GlcNAcβPro-triazole-C14 [LacNAcβPro-triazole-C14]” as the compound, how does the “% product formation” value (MBP-PmST2-His6 [2]) read?
Answer: 18.5 ± 2.7%

Question: And the “% Relative” value (MBP-PmST2-His6 [2])?
Answer: 51.2%

Question: What does the source list for “Galβ1-4GlcβPro-triazole-C14 [LacβPro-triazole-C14]”?
Answer: optimal pH range with this acceptor (MBP-PmST2-His6 [5]): 5.0-8.0; acceptor substrate for PmST2 (in words) (MBP-PmST2-His6 [2]): best acceptor substrate; % product formation (MBP-PmST2-His6 [2]): 36.1 ± 1.5%; % Relative (MBP-PmST2-His6 [2]): 100%; sialylation achieved in 1 hour (MBP-PmST2-His6 [6]): 60%; time at which the sialyltransferase reaction reached optimum (PmST1 [7]; acceptor 2 mM, CMP-Neu5Ac 8 mM, 37° C., pH 8.0): 15 min; product formation at optimum (PmST1 [7]; at 15 min): less than 5%; fold difference in KM values (stronger binding) versus LacβPro2AA (MBP-PmST2-His6 [8]): 7 fold; Km (MBP-PmST2-His6 [8]): 4100 ± 300 µM; kcat (MBP-PmST2-His6 [8]): 0.2 ± 0.017 s⁻¹; Vmax (MBP-PmST2-His6 [8]): (1.7 ± 0.1) × 10^−1 mM min^−1; fold higher catalytic activity versus LacβPro2AA as acceptor (MBP-PmST2-His6 [8]; from differences in KM and kcat): 10 fold

Question: Which Km (MBP-PmST2-His6 [8]) does the source give for “cytidine 5′-monophosphate N-acetylneuraminic acid [CMP-Neu5Ac, reference compound]” here?
Answer: 1300 ± 100 µM

Question: What about the kcat (MBP-PmST2-His6 [8]) of the same compound?
Answer: 0.0883 ± 0.0067 s⁻¹

Question: And the Vmax (MBP-PmST2-His6 [8])?
Answer: (7.4 ± 0.5) × 10^−2 mM min^−1

Question: With lactosyl ceramide [reference compound] as the compound, how does the “acceptor substrate for PmST2 (in words)” value (MBP-PmST2-His6 [2]) read?
Answer: not an acceptor
